Common to all, as to assay type: in vivo
What all share (settings): 50 ppm, 100 = 100% disease control, 0 = no control

For assay [1], the system named is Blumeria graminis f. sp. tritici. Put plainly: Test C: wheat powdery mildew, preventive spray on wheat seedlings. A digest of the protocol: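 Seedlings were sprayed to run-off with compound suspended (ppm) in 50/50 acetone–water containing 250 ppm PEG400, then spore-dust inoculated the following day. After 8 days at 20° C, disease control was rated visually from 0 to 100 against controls.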

The test system of a further assay is Phakopsora pachyrhizi. The assay is described as follows: Test D: Asian soybean rust, preventive spray on soybean seedlings. In short, it runs like this:
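Compounds in acetone/water (50/50) with 250 ppm PEG400, dosed in ppm, sprayed to run-off on soybean seedlings; inoculated with P. pachyrhizi spores next day. Held 24 h at 22 °C in saturated air, then 8 days at 22 °C; visual rating of disease control, 0–100, relative to untreated controls.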

The test system of a further assay is Alternaria solani. The assay is described as follows: Test F: tomato early blight, preventive spray on tomato seedlings. A digest of the protocol:
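Tomato seedlings were sprayed to run-off with compound suspended in acetone/water (50/50) with 250 ppm PEG400 and inoculated with Alternaria solani spores the next day. Plants were held 48 h at 27 °C in saturated humidity, then 3 days at 20 °C. Disease control was rated visually from 0 to 100 against untreated controls.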

The next assay relates to Botrytis cinerea. Put plainly: Test E: tomato Botrytis, preventive spray on tomato seedlings. In short, it runs like this: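 Compound suspended in 50/50 acetone/water with 250 ppm PEG400 surfactant and sprayed to run-off on tomato seedlings; Botrytis cinerea spores applied the next day. Incubation 48 h at 20° C in saturated atmosphere, then 3 days at 24° C. Visual rating 0–100% disease control relative to controls.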

The test system of another assay is Septoria tritici. Put plainly: Test A: wheat leaf blotch, preventive spray on wheat seedlings. In short, it runs like this: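 Wheat seedlings sprayed to run-off with compound suspended in acetone/water with 250 ppm PEG400 surfactant, inoculated next day with Septoria tritici spores. Held 48 h saturated at 24 °C, then 17 days at 20 °C; disease rated 0–100% control relative to controls.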

In assay [2] the test system is Puccinia recondita f. sp. tritici. Put plainly: Test B: wheat leaf rust, preventive spray on wheat seedlings. In short, it runs like this: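 Wheat seedlings were sprayed to run-off with compound suspended at ppm concentrations in acetone/water containing 250 ppm PEG400. The next day they were inoculated with Puccinia recondita f. sp. tritici spores, held saturated at 20 °C for 24 h, then kept 7 days at 20 °C. Disease control was rated 0–100% relative to untreated controls.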

`COc1cc(F)c(-c2c(C)nn(C)c2Nc2c(F)cc(Cl)cc2[N+](=O)[O-])c(F)c1` [compound 86]: the “Test C disease control rating” value in assay [1] amounted to 98%. The “Test D disease control rating” value in the assay with Phakopsora pachyrhizi came to 77%. Also, in the assay with Alternaria solani, the “Test F disease control rating” value is on record as 99%. Besides, in the assay with Botrytis cinerea, the “Test E disease control rating” value amounted to 96%. In the assay with Septoria tritici, the “Test A disease control rating” value stood at 100%. Moreover, in assay [2], the “Test B disease control rating” value came out at 100%.

For the compound `Cc1ccc(Nc2c(-c3ccc(F)cc3Br)c(C)nn2C)c([N+](=O)[O-])c1` [compound 90], the “Test C disease control rating” value in assay [1] amounted to 87%. Further, the “Test D disease control rating” value in the assay with Phakopsora pachyrhizi amounted to 0%. For the same compound, in the assay on Alternaria solani, the “Test F disease control rating” value was determined as 9%. In the assay on Botrytis cinerea, the “Test E disease control rating” value is on record as 99%. For the same compound, the “Test A disease control rating” value in the assay on Septoria tritici was 100%. The “Test B disease control rating” value in assay [2] amounted to 95%.

Regarding `Cc1nn(C)c(Nc2ccc(Br)cc2[N+](=O)[O-])c1-c1ccc(F)cc1Cl` [compound 91], the “Test C disease control rating” value in assay [1] was 84%. Besides, in the assay on Phakopsora pachyrhizi, the “Test D disease control rating” value worked out at 0%. The “Test F disease control rating” value in the assay on Alternaria solani came to 26%. The “Test E disease control rating” value with Botrytis cinerea is 99%. For the same compound, the “Test A disease control rating” value in the assay on Septoria tritici came out at 99%. The “Test B disease control rating” value in assay [2] is 88%.

As for `Cc1nn(C)c(Nc2ccc(Cl)cc2[N+](=O)[O-])c1-c1ccc(F)cc1Cl` [compound 92], in assay [1], the “Test C disease control rating” value turned out to be 89%. Besides, the “Test D disease control rating” value in the assay on Phakopsora pachyrhizi was found to be 0%. For the same compound, the “Test F disease control rating” value in the assay on Alternaria solani worked out at 79%. In addition, the “Test E disease control rating” value with Botrytis cinerea was 100%. Moreover, the “Test A disease control rating” value in the assay with Septoria tritici is given as 100%. The “Test B disease control rating” value in assay [2] amounted to 96%.

As for `Cc1nn(C)c(Nc2ccc(OC(F)(F)F)cc2[N+](=O)[O-])c1-c1ccc(F)cc1Cl` [compound 94], in assay [1], the “Test C disease control rating” value came out at 72%. Also, the “Test D disease control rating” value in the assay on Phakopsora pachyrhizi is 73%. Also, the “Test F disease control rating” value with Alternaria solani is 9%. The “Test E disease control rating” value with Botrytis cinerea is reported as 0%. In the assay on Septoria tritici, the “Test A disease control rating” value worked out at 73%. For the same compound, the “Test B disease control rating” value in assay [2] came to 0%.

For the compound `CCc1nn(C)c(Nc2c(F)cc(F)cc2[N+](=O)[O-])c1-c1ccc(F)cc1Cl` [compound 95], the “Test C disease control rating” value in assay [1] came out at 100%. Further, the “Test D disease control rating” value with Phakopsora pachyrhizi is 84%. Further, the “Test F disease control rating” value with Alternaria solani amounted to 99%. Moreover, the “Test E disease control rating” value in the assay on Botrytis cinerea was 99%. Besides, the “Test A disease control rating” value in the assay with Septoria tritici was 100%. For the same compound, the “Test B disease control rating” value in assay [2] turned out to be 100%.

For the compound `Cc1nn(C)c(Nc2c(Cl)cc(Cl)cc2[N+](=O)[O-])c1-c1c(F)cccc1F` [compound 96], the “Test C disease control rating” value in assay [1] was 0%. The “Test D disease control rating” value in the assay on Phakopsora pachyrhizi is 0%. Besides, in the assay with Alternaria solani, the “Test F disease control rating” value amounted to 0%. The “Test E disease control rating” value in the assay with Botrytis cinerea was found to be 80%. In addition, in the assay on Septoria tritici, the “Test A disease control rating” value came out at 100%. In addition, the “Test B disease control rating” value in assay [2] came to 95%.

For the compound `COc1cc(F)c(Nc2c(-c3c(F)cccc3F)c(C)nn2C)c([N+](=O)[O-])c1` [compound 97], the “Test C disease control rating” value in assay [1] is listed as 100%. Further, the “Test D disease control rating” value in the assay on Phakopsora pachyrhizi is 96%. Besides, the “Test F disease control rating” value in the assay on Alternaria solani was 99%. For the same compound, in the assay with Botrytis cinerea, the “Test E disease control rating” value is given as 100%. Also, the “Test A disease control rating” value in the assay with Septoria tritici worked out at 100%. Further, the “Test B disease control rating” value in assay [2] turned out to be 100%.

On to `Cc1nn(C)c(Nc2c(F)cc(Cl)cc2[N+](=O)[O-])c1-c1c(F)cccc1F` [compound 98], for which the “Test C disease control rating” value in assay [1] came out at 93%. In addition, the “Test D disease control rating” value with Phakopsora pachyrhizi amounted to 0%. Moreover, the “Test F disease control rating” value with Alternaria solani worked out at 98%. In addition, the “Test E disease control rating” value in the assay on Botrytis cinerea was found to be 99%. Besides, in the assay on Septoria tritici, the “Test A disease control rating” value is 100%. Further, in assay [2], the “Test B disease control rating” value came out at 97%.

In the case of `Cc1nn(C)c(Nc2cccc(Cl)c2[N+](=O)[O-])c1-c1c(F)cccc1F` [compound 99], the “Test C disease control rating” value in assay [1] is 0%. In addition, the “Test D disease control rating” value in the assay with Phakopsora pachyrhizi is on record as 0%. Further, in the assay with Alternaria solani, the “Test F disease control rating” value is listed as 0%. For the same compound, the “Test E disease control rating” value with Botrytis cinerea is 24%. Moreover, in the assay with Septoria tritici, the “Test A disease control rating” value is 99%. Further, the “Test B disease control rating” value in assay [2] came out at 0%.

As to `Cc1cc(Cl)c(Nc2c(-c3c(F)cccc3F)c(C)nn2C)c([N+](=O)[O-])c1` [compound 100], the “Test C disease control rating” value in assay [1] is on record as 21%. Moreover, the “Test D disease control rating” value with Phakopsora pachyrhizi is 0%. Besides, the “Test F disease control rating” value with Alternaria solani turned out to be 0%. For the same compound, the “Test E disease control rating” value in the assay on Botrytis cinerea was 26%. For the same compound, in the assay on Septoria tritici, the “Test A disease control rating” value worked out at 100%. The “Test B disease control rating” value in assay [2] is listed as 89%.

Turning to `Cc1nn(C)c(Nc2c(Cl)cc(Cl)cc2[N+](=O)[O-])c1-c1ccc(F)cc1F` [compound 101], in assay [1], the “Test C disease control rating” value is given as 89%. Also, the “Test D disease control rating” value with Phakopsora pachyrhizi is recorded as 44%. In addition, the “Test F disease control rating” value in the assay on Alternaria solani is reported as 0%. In addition, the “Test E disease control rating” value in the assay with Botrytis cinerea worked out at 99%. The “Test A disease control rating” value with Septoria tritici is given as 100%. In addition, the “Test B disease control rating” value in assay [2] amounted to 99%.

`Cc1nn(C)c(Nc2c(F)cc(Cl)cc2[N+](=O)[O-])c1-c1ccc(F)cc1F` [compound 102]: in assay [1], the “Test C disease control rating” value was 100%. The “Test D disease control rating” value with Phakopsora pachyrhizi is 48%. The “Test F disease control rating” value with Alternaria solani is 99%. The “Test E disease control rating” value in the assay with Botrytis cinerea is given as 99%. The “Test A disease control rating” value in the assay on Septoria tritici is 100%. Moreover, the “Test B disease control rating” value in assay [2] came to 100%.

In the case of `CCOc1ccc(Nc2c(-c3ccc(F)cc3Cl)c(C)nn2C)c([N+](=O)[O-])c1` [compound 103], the “Test C disease control rating” value in assay [1] turned out to be 50%. Moreover, the “Test D disease control rating” value in the assay on Phakopsora pachyrhizi is 0%. Moreover, in the assay with Alternaria solani, the “Test F disease control rating” value is reported as 0%. Moreover, the “Test E disease control rating” value in the assay on Botrytis cinerea is reported as 83%. Moreover, in the assay with Septoria tritici, the “Test A disease control rating” value is given as 97%. In addition, the “Test B disease control rating” value in assay [2] amounted to 80%.

For `Cc1nn(C)c(Nc2ccc(OC(C)C)cc2[N+](=O)[O-])c1-c1ccc(F)cc1Cl` [compound 104], the “Test C disease control rating” value in assay [1] is recorded as 72%. Besides, in the assay with Phakopsora pachyrhizi, the “Test D disease control rating” value was determined as 0%. In addition, the “Test F disease control rating” value in the assay on Alternaria solani is 0%. Moreover, in the assay with Botrytis cinerea, the “Test E disease control rating” value was determined as 0%. Further, the “Test A disease control rating” value with Septoria tritici was determined as 60%. Besides, the “Test B disease control rating” value in assay [2] amounted to 0%.

For the compound `Cc1ccc(Nc2c(-c3c(F)cccc3F)c(C)nn2C)c([N+](=O)[O-])c1` [compound 105], in assay [1], the “Test C disease control rating” value worked out at 86%. Also, the “Test D disease control rating” value in the assay with Phakopsora pachyrhizi turned out to be 0%. Besides, the “Test F disease control rating” value in the assay with Alternaria solani came to 0%. In addition, the “Test E disease control rating” value in the assay with Botrytis cinerea was determined as 73%. For the same compound, the “Test A disease control rating” value in the assay with Septoria tritici was 99%. The “Test B disease control rating” value in assay [2] was found to be 74%.

Take `Cc1nn(C)c(Nc2c(Cl)cccc2[N+](=O)[O-])c1-c1ccc(F)cc1Cl` [compound 108]: the “Test C disease control rating” value in assay [1] is 97%. Moreover, the “Test D disease control rating” value in the assay on Phakopsora pachyrhizi was 86%. Further, in the assay with Alternaria solani, the “Test F disease control rating” value is on record as 77%. In the assay with Botrytis cinerea, the “Test E disease control rating” value turned out to be 100%. In addition, the “Test A disease control rating” value in the assay on Septoria tritici came out at 100%. For the same compound, in assay [2], the “Test B disease control rating” value worked out at 100%.

Turning to `Cc1nn(C)c(Nc2c(F)cc(F)cc2[N+](=O)[O-])c1-c1ccc(F)cc1Cl` [compound 109], in assay [1], the “Test C disease control rating” value is 100%. Besides, the “Test D disease control rating” value in the assay on Phakopsora pachyrhizi was determined as 93%. The “Test F disease control rating” value in the assay on Alternaria solani is 99%. In the assay with Botrytis cinerea, the “Test E disease control rating” value is given as 100%. The “Test A disease control rating” value in the assay on Septoria tritici is 100%. In addition, the “Test B disease control rating” value in assay [2] stood at 100%.
